These results are taken from US9827222B2, “Treating or preventing nephrogenic diabetes insipidus” (Emory University, priority 2013, dated 2017).

The test system of assay [1] is UT-A1-mIMCD3 cells. The assay is described as follows: cAMP in UT-A1-mIMCD3 cells. The format is cell-based. The conditions noted are these: 1 μM vasopressin (AVP) for 10 min; p<0.05. As for the experimental part:
FIG. 5 illustrates cAMP in UT-A1-mIMCD3 cells after treatment with 1 μM vasopressin (AVP) for 10 min, *=p<0.05.

Assay [2] can be described thus: Urine osmolality in rats after IP metformin. The format is in vivo, rat. The note with it: rats with normal water or water loaded for 1 week; 4 h after IP injection of metformin. The source says: (§1) Rats with normal water (blue); water loaded for 1 week (red). Mice fed lithium for 14 days (green); V2R−/− mice (brown).
For assay [3], the system named is AQP2. The assay is described as follows: AQP2 phosphorylation in rat inner medulla. From the text: Left: immune-precipitated 32P-AQP2; Right: phospho S256-AQP2.
For assay [4], the system named is AQP2. The assay is described as follows: Apical plasma membrane AQP2 in IMCDs of treated rats. The note with it: 4 h, 100 mg/kg IP. It is filed as in vivo, rat. The source says:
400×, HRP/Dab with hematoxylin stained nuclei.

The subject of assay [5] is UT-A1. Put plainly: UT-A1 phosphorylation in rat inner medullary tissue. The note with it: AMPK stimulation with metformin, p<0.05. From the text:
(§2) Preliminary data indicates AMPK phosphorylates both the UT-A1 and AQP2 proteins, both in vitro (FIG. 3) and in native rat IMCD suspensions (FIG. 4). […]. Thus, AMPK may mimic by which vasopressin increases urine concentrating ability.

A short description of assay [6]: Urine osmolality in V2R knock-out mice (model of congenital NDI). The format is in vivo. The conditions noted are these: 4 h after IP injection of metformin.
From the text: as §1, §2

Assay [7] in a line: Urine osmolality in lithium-treated mice. The format is in vivo. The note with it: mice fed lithium for 14 days; 4 h after IP injection of metformin.
From the text: as §1

Regarding `NC(=O)CC[C@@H]1NC(=O)[C@H](Cc2ccccc2)NC(=O)[C@H](Cc2ccc(O)cc2)NC(=O)[C@@H](N)CSSC[C@@H](C(=O)N2CCC[C@H]2C(=O)N[C@@H](CCCN=C(N)N)C(=O)NCC(N)=O)NC(=O)[C@H](CC(N)=O)NC1=O` [Vasopressin, vasopressin], in assay [1], the cAMP result is recorded as “increases”.

As for `CN(C)C(=N)N=C(N)N` [metformin], the urine osmolality result in assay [2], in assay [6] and in assay [7] was “increases” throughout. Further, the pS256-AQP2 entry in assay [3] (rat inner medulla, 10^-4 M metformin with V2R inhibited using 10^-7 M tolvaptan) was “increases”. Besides, the AQP2 phosphorylation result in assay [3] (rat inner medullary tissue, AMPK stimulation with metformin, p<0.05) is “undergo phosphorylation”. Further, the “apical plasma membrane AQP2” value in assay [4] is “increases”. Also, in assay [5], the UT-A1 phosphorylation entry was “undergo phosphorylation”.

In the case of `Cc1ccccc1C(=O)Nc1ccc(C(=O)N2CCCC(O)c3cc(Cl)ccc32)c(C)c1` (stereo not drawn) [tolvaptan], the “AQP2 phosphorylation (immune-precipitated 32P-AQP2)” value in assay [3] (native rat IMCDs, 10^-7 M tolvaptan & 10^-4 M metformin, compared to metformin alone) is “increased”.
